Laboratory results: the supplement of paper PMC10307832

What was measured:
Test in all cases: relative viability (nuclei count vs DMSO), 5 days (fraction); higher = more cells survive
Tipifarnib + AZD7762 = compound: Cn1cncc1[C@@](N)(c1ccc(Cl)cc1)c1ccc2c(c1)c(-c1cccc(Cl)c1)cc(=O)n2C [Tipifarnib] + NC(=O)Nc1cc(-c2cccc(F)c2)sc1C(=O)N[C@H]1CCCNC1 [AZD7762] (partner 0.2 µM)
In short: (§1)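 After 5 days of treatment, lung cancer cells in 1536-well plates were fixed and stained in a single step (final 0.05% Triton X-100, 1% formaldehyde, 1 ug/ml Hoechst) and their nuclei counted on 4× images. Treatment had been applied by pin tool the day after seeding as one drug alone or as a fixed anchor-drug dose with five library-drug doses (not always all listed) in √10 steps. Relative viability is the nuclei count of treated wells divided by that of vehicle wells, and values are medians of duplicate plates.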

Tipifarnib + Decitabine = compound: Cn1cncc1[C@@](N)(c1ccc(Cl)cc1)c1ccc2c(c1)c(-c1cccc(Cl)c1)cc(=O)n2C [Tipifarnib] + Nc1ncn([C@H]2C[C@H](O)[C@@H](CO)O2)c(=O)n1 [Decitabine] (partner 2 µM)
In short: as §1

Tipifarnib + Bortezomib = compound: Cn1cncc1[C@@](N)(c1ccc(Cl)cc1)c1ccc2c(c1)c(-c1cccc(Cl)c1)cc(=O)n2C [Tipifarnib] + CC(C)C[C@H](NC(=O)[C@H](Cc1ccccc1)NC(=O)c1cnccn1)B(O)O [Bortezomib] (partner 0.002 µM)
In short: as §1

Tipifarnib + Lapatinib = compound: Cn1cncc1[C@@](N)(c1ccc(Cl)cc1)c1ccc2c(c1)c(-c1cccc(Cl)c1)cc(=O)n2C [Tipifarnib] + CS(=O)(=O)CCNCc1ccc(-c2ccc3ncnc(Nc4ccc(OCc5cccc(F)c5)c(Cl)c4)c3c2)o1 [Lapatinib] (partner 2 µM)
In short: as §1

| Cell Line | relative viability (Tipifarnib + AZD7762; first compound 0.01 µM) | relative viability (Tipifarnib + AZD7762; first compound 0.03162 µM) | relative viability (Tipifarnib + AZD7762; first compound 0.1 µM) | relative viability (Tipifarnib + AZD7762; first compound 0.3162 µM) | relative viability (Tipifarnib + AZD7762; first compound 1 µM) | relative viability (Tipifarnib + Decitabine; first compound 0.01 µM) | relative viability (Tipifarnib + Decitabine; first compound 0.03162 µM) | relative viability (Tipifarnib + Decitabine; first compound 0.1 µM) | relative viability (Tipifarnib + Decitabine; first compound 0.3162 µM) | relative viability (Tipifarnib + Decitabine; first compound 1 µM) | relative viability (Tipifarnib + Bortezomib; first compound 0.01 µM) | relative viability (Tipifarnib + Bortezomib; first compound 0.03162 µM) | relative viability (Tipifarnib + Bortezomib; first compound 0.1 µM) | relative viability (Tipifarnib + Bortezomib; first compound 0.3162 µM) | relative viability (Tipifarnib + Bortezomib; first compound 1 µM) | relative viability (Tipifarnib + Lapatinib; first compound 0.01 µM) | relative viability (Tipifarnib + Lapatinib; first compound 0.03162 µM) | relative viability (Tipifarnib + Lapatinib; first compound 0.1 µM) | relative viability (Tipifarnib + Lapatinib; first compound 0.3162 µM) | relative viability (Tipifarnib + Lapatinib; first compound 1 µM) |
| --- | --- | --- | --- | --- | --- | --- | --- | --- | --- | --- | --- | --- | --- | --- | --- | --- | --- | --- | --- | --- |
| NCI-H522 | 0.925 | 1.03 | 0.875 | 0.754 | 0.662 | 0.657 | 0.725 | 0.582 | 0.586 | 0.592 |  |  |  |  |  |  |  |  |  |  |
| NCI-H661 |  |  |  |  |  | 0.646 | 0.564 | 0.525 | 0.503 | 0.531 | 0.967 | 0.818 | 0.569 | 0.598 | 0.744 | 0.636 | 0.56 | 0.375 | 0.424 | 0.397 |
| NCI-H1299 |  |  |  |  |  |  |  |  |  |  | 0.988 | 0.954 | 0.929 | 0.847 | 0.816 | 0.998 | 0.9 | 0.915 | 0.845 | 0.836 |
| NCI-H1395 | 0.363 | 0.367 | 0.398 | 0.375 | 0.329 | 0.7 | 0.674 | 0.59 | 0.626 | 0.654 |  |  |  |  |  | 1.03 | 0.85 | 0.82 | 0.68 | 0.48 |
| NCI-H1563 |  |  |  |  |  |  |  |  |  |  | 0.996 | 0.881 | 0.87 | 0.871 | 0.748 | 1 | 0.956 | 1.02 | 0.891 | 0.879 |
| NCI-H1648 | 0.625 | 0.535 | 0.681 | 0.551 | 0.341 | 0.603 | 0.48 | 0.608 | 0.51 | 0.338 |  |  |  |  |  |  |  |  |  |  |
| NCI-H1650 |  |  |  |  |  | 0.307 | 0.298 | 0.309 | 0.357 | 0.304 | 0.224 | 0.204 | 0.202 | 0.209 | 0.191 | 0.687 | 0.643 | 0.486 | 0.376 | 0.211 |
| NCI-H1703 | 0.139 | 0.111 | 0.125 | 0.0872 | 0.14 |  |  |  |  |  | 0.296 | 0.262 | 0.304 | 0.195 | 0.186 | 0.78 | 0.706 | 0.253 | 0.319 | 0.417 |
| NCI-H1793 | 0.605 | 0.426 | 0.379 | 0.302 | 0.2 | 0.555 | 0.427 | 0.374 | 0.338 | 0.365 |  |  |  |  |  | 0.882 | 0.691 | 0.742 | 0.381 | 0.52 |
| NCI-H1944 | 0.515 | 0.435 | 0.295 | 0.299 | 0.306 | 0.421 | 0.452 | 0.413 | 0.346 | 0.404 |  |  |  |  |  | 0.854 | 0.622 | 0.599 | 0.444 | 0.342 |
| NCI-H2009 |  |  |  |  |  | 0.382 | 0.378 | 0.362 | 0.357 | 0.323 | 1.11 | 0.775 | 0.678 | 0.642 | 0.373 | 0.99 | 0.707 | 0.708 | 0.602 | 0.326 |
| NCI-H2023 |  |  |  |  |  | 0.219 | 0.2 | 0.215 | 0.176 | 0.165 | 1.27 | 0.757 | 0.45 | 0.453 | 0.156 | 1.01 | 0.544 | 0.348 | 0.357 | 0.105 |
| NCI-H2170 | 0.98 | 0.885 | 0.701 | 0.644 | 0.506 | 0.533 | 0.441 | 0.465 | 0.43 | 0.412 |  |  |  |  |  | 0.245 | 0.271 | 0.272 | 0.265 | 0.248 |
| NCI-H2228 |  |  |  |  |  |  |  |  |  |  | 1.2 | 0.615 | 0.727 | 0.577 | 0.404 | 1.02 | 0.705 | 0.782 | 0.444 | 0.315 |
| NCI-H2342 | 0.509 | 0.506 | 0.36 | 0.449 | 0.39 | 0.778 | 0.782 | 0.683 | 0.555 | 0.557 |  |  |  |  |  |  |  |  |  |  |
| SK-LU-1 |  |  |  |  |  | 0.728 | 0.627 | 0.706 | 0.594 | 0.59 | 1.12 | 0.508 | 0.626 | 0.614 | 0.36 | 0.725 | 0.75 | 0.857 | 0.388 | 0.367 |
| SK-MES-1 |  |  |  |  |  | 0.465 | 0.336 | 0.35 | 0.421 | 0.33 |  |  |  |  |  | 0.466 | 0.455 | 0.481 | 0.411 | 0.386 |
| SW 1573 |  |  |  |  |  | 0.6 | 0.411 | 0.322 | 0.33 | 0.268 | 1.13 | 0.752 | 0.691 | 0.45 | 0.49 | 1.08 | 1.13 | 0.669 | 0.648 | 0.243 |
| UMC-11 |  |  |  |  |  | 0.569 | 0.53 | 0.524 | 0.322 | 0.405 | 0.667 | 0.498 | 0.465 | 0.447 | 0.242 | 0.84 | 0.605 | 0.595 | 0.475 | 0.281 |
